Assay results as given in article PMC11509018, “Evaluation of the Role of Tanshinone I in an In Vitro System of Charcot-Marie-Tooth Disease Type 2N” (International Journal of Molecular Sciences, 2024).

Biological target: T1, AlaRS G102R binding to Nrp1 (Homo sapiens, UniProt P49588, G102R)
T1 construct: expressed in transfected cells
T1 sequence (P49588 1-968 G102R): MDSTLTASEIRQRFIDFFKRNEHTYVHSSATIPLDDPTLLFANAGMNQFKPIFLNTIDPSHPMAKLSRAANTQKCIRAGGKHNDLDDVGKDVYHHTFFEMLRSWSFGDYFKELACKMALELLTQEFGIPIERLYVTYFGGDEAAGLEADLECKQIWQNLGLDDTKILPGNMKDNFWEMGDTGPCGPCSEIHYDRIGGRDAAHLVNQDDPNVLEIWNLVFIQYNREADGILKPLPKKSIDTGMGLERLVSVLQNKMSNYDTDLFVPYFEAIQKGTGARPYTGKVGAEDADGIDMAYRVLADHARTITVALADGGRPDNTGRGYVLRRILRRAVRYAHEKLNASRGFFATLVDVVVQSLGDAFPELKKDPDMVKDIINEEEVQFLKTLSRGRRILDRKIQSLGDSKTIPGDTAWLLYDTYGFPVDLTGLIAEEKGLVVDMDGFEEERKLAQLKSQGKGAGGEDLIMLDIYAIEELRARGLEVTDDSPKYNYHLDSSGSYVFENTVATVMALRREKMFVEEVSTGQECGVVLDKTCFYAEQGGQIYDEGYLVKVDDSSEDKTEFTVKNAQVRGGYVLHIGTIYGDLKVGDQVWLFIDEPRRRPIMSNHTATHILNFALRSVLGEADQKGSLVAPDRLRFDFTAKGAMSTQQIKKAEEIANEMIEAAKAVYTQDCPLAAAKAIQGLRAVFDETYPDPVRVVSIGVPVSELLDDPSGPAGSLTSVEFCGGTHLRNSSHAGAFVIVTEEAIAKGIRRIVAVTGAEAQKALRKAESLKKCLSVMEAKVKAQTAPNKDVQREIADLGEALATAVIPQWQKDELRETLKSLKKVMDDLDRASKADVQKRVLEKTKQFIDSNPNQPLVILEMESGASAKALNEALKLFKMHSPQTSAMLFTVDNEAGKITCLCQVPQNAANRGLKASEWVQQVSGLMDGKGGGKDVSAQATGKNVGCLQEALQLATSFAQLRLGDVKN
Assay: Co-IP of HA-AlaRS mutant with Nrp1 in transfected cells
Assay type: cell-based
Conditions: 20 µM Tanshinone I for 24 h, ImageJ, average of three repeats
Protocol: To further investigate whether Tanshinone I-induced conformational changes in AlaRS CMT mutants affect their interaction with Nrp1, Co-IP experiments were performed in cells treated with Tanshinone I. By comparing Co-IP results obtained before and after treatment, we assessed the influence of the drug on the binding strength and mode between the AlaRS CMT mutants and Nrp1. […] To confirm the direct effect of Tanshinone I on the interaction between AlaRS CMT mutants and Nrp1, pull-down experiments were performed. […] Given that the interaction between AlaRS mutants and Nrp1 is associated with disease progression in CMT, the ability of Tanshinone I to disrupt this binding highlights its potential to intervene in the pathogenic mechanisms of these diseases.
Figure 7 The impact of Tanshinone I on the interaction between AlaRS mutants and Nrp1. (A) Co-IP assays were conducted to assess the binding between HA-AlaRS mutants and Nrp1, both with and without treatment with 20 µM Tanshinone I for 24 h. […] (C) Pull down assay was performed to detect the binding between AlaRS mutants and GST-Nrp1 b1 with or without 20 µM Tanshinone I. (D) Relative quantification statistics of the AlaRS mutants pulled down from the GST pull down experiments after Tanshinone I treatment were performed using ImageJ. (E) The cell viability of 293T and NSC34 cells treated with different concentrations of Tanshinone I was assessed using the CCK-8 assay over a 24 h period. TEXT PRINTED IN THE PICTURE: (B) Tanshinone I: Mean density band (N71Y): 0.60; Mean density band (G102R): 0.53; Mean density band (R326W): 0.50; Mean density band (R329H): 0.50; Mean density band (E337K): 0.62 | (D) Tanshinone I: Mean density band (N71Y): 0.82; Mean density band (G102R): 0.76; Mean density band (R326W): 0.84; Mean density band (R329H): 0.84; Mean density band (E337K): 0.90
Total protein was extracted from cells using RIPA buffer (50 mM Tris-HCl pH 7.4, 150 mM NaCl, 1% NP40, 1 mM EDTA) supplemented with a protease and phosphatase inhibitor cocktail (Roche, Basel, Switzerland). After SDS-PAGE, the protein on the gel was transferred to a PVDF membrane (Bio-Rad, Hercules, CA, USA) and then blocked with 5% non-fat dry milk in TBST for 1 h. Then, the membranes were incubated with the indicated primary antibodies and corresponding HRP-conjugated secondary antibodies. Signals were detected using the Bio-Rad ChemiDoc system (Bio-Rad, Shanghai, China). The following antibodies were used: Flag (Ray antibody biotech, Beijing, China, 1:3000), HA (Ray antibody biotech, Beijing, China, 1:3000), and GAPDH (Ray antibody biotech, Beijing, China, 1:5000).
To detect the binding of Nrp1 and AlaRS mutants in cells, whole-cell lysates (500 μg) were treated overnight with 2 μg of anti-Flag antibody in RIPA buffer. Next, Protein A/G agarose beads (#sc-2003, Santa Cruz Biotechnology, Santa Cruz, CA, USA) were applied to the lysates and the samples were further treated for 8–12 h with rotation. Samples were washed three times with RIPA buffer. Subsequently, the immunoprecipitations were resuspended into 2 × SDS-loading buffer. The samples were then boiled for 10 min and detected using Western blot. The experiment was repeated three times.

## Cc1coc2c1C(=O)C(=O)c1c-2ccc2c(C)cccc12 [Tanshinone I]
  Mean density band (G102R), relative quantification of AlaRS mutant immunoprecipitated: 0.53
